The star is where a group is joined. Palmitoyl = CCCCCCCCCCCCCCCC(=O)*
B1: Pal-KTSKS-OH (peptide)
peptide: Palmitoyl-KTSKS-OH
SMILES: CCCCCCCCCCCCCCCC(=O)N[C@@H](CCCCN)C(=O)N[C@H](C(=O)N[C@@H](CO)C(=O)N[C@@H](CCCCN)C(=O)N[C@@H](CO)C(=O)O)[C@@H](C)O

Tests used:
P. acnes = P. acnes growth curve (time to OD600 nm = 0.5); assay type: cell-based, Propionibacterium acnes; conditions: for Time (in hour) to reach OD600 nm = 0.5: vehicle 42-44 h
Protocol: 1—P. acnes growth curve (same protocol as described above at point 1.4)
P. acnes is thawed and grown over 3 days in M20 media. Then, optical density at 600 nm (OD600) is measured and 2×10^6 CFU*/mL are plated in well plates. P. acnes is then treated with 6 ppm, 9 ppm and 12 ppm of peptides. To follow bacterial cell multiplication, OD600 is measured regularly for about 1 week. […] Statistical evaluations are performed on results using a Student t test. Two independent experiments are performed (N=2).

[1] = tested on: normal human keratinocytes (NHK); assay: Involucrin quantification by immunohistochemistry in NHK; assay type: cell-based; conditions: 5 ppm
Protocol: Normal human keratinocytes (NHK) are grown on wells plate. When subconfluence was reached, cells received various concentrations of the peptides. After few days, evaluation of differentiation is compared to solvent control under microscope and cells are fixed to allow the study of involucrin by immunohistochemistry.
Involucrin is an early marker of keratinocytes differentiation. The below table show the percentage of variation of involucrin vs. Control.

[2] = biological target: extracellular lipases of P. acnes (Propionibacterium acnes); assay: cell-based or functional assay

Row | Molecule | Delay in P. acnes growth versus vehicle (P. acnes; 6 ppm) | Time (in hour) to reach OD600 nm = 0.5 (P. acnes; 6 ppm) [h] | Delay in P. acnes growth versus vehicle (P. acnes; 9 ppm) | Time (in hour) to reach OD600 nm = 0.5 (P. acnes; 9 ppm) [h] | Delay in P. acnes growth versus vehicle (P. acnes; 12 ppm) | Time (in hour) to reach OD600 nm = 0.5 (P. acnes; 12 ppm) [h] | Involucrin (% var vs. Control) [1] | Reduction in lipase activity of P. acnes (4-MUO fluorescent probe), variation (%) vs solvent control, 6 ppm of peptide [2] [%] | Reduction in lipase activity of P. acnes (4-MUO fluorescent probe), variation (%) vs solvent control, 9 ppm of peptide [2] [%] | Reduction in lipase activity of P. acnes (4-MUO fluorescent probe), variation (%) vs solvent control, 12 ppm of peptide [2] [%]
1 | Pal-KTSKSA-OH (Palmitoyl-KTSKSA-OH; SMILES CCCCCCCCCCCCCCCC(=O)N[C@@H](CCCCN)C(=O)N[C@H](C(=O)N[C@@H](CO)C(=O)N[C@@H](CCCCN)C(=O)N[C@@H](CO)C(=O)N[C@@H](C)C(=O)O)[C@@H](C)O) [other preferred peptide of the invention, palmitoyl hexapeptide KTSKSA] | +5 h | 47.3 | +15 h | 57.9 | +18 h | 60.5 | +152%; p < 0.01 | – | – | –
2 | Pal-GKTSKS-OH | +2 h | 45.6 | +12 h | 56.2 | +26 h | 70.2 | – | – | – | –
3 | Pal-KTSKT-OH (Palmitoyl-KTSKT-OH; SMILES CCCCCCCCCCCCCCCC(=O)N[C@@H](CCCCN)C(=O)N[C@H](C(=O)N[C@@H](CO)C(=O)N[C@@H](CCCCN)C(=O)N[C@H](C(=O)O)[C@@H](C)O)[C@@H](C)O) [other preferred peptide of the invention, palmitoyl pentapeptide KTSKT] | +5 h | 47.7 | +13 h | 55.2 | +43 h | 85.1 | +125%; p < 0.01 | – | – | –
4 | B1 | – | – | – | – | – | – | – | -22 | -64 | -88

From US20230255873A1, “COSMETIC OR DERMATOLOGICAL PEPTIDE-BASED TREATMENT OF THE SKIN AND ITS INTEGUMENTS” (Sederma, priority 2020, published 2023)
